Data set [1] relates to Hela, human cervical carcinoma. As to the kind of experiment: preliminary anti-tumor screening in vitro, MTT method. The format is cell-based. The following applies: read-out: inhibition rates (%) Hela. Put shortly:
(§1)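 Inhibition rates measured at 0.1, 1 or 10 μM compound; cell growth read by MTT for Hela, SRB for BGC-823, MCF-7 and A549.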

The next data set relates to A549, human lung cancer. The data set is described as follows: preliminary anti-tumor screening in vitro, SRB method. It is filed as cell-based. The note with it: read-out: inhibition rates (%) A549. Summed up: as §1
For orientation: In SRB staining, fixed cells bind dye roughly in proportion to their protein.

A further data set has as its system MCF-7, breast cancer. Described as above. The format is cell-based. The note with it: Homo sapiens, read-out: inhibition rates (%) MCF-7; for inhibition at 0.1 µM: MCF7, 0.1 μM; for inhibition at 1 µM: MCF7, 1 μM; for inhibition at 10 µM: MCF7, 10 μM. Summed up: as §1
Another data set relates to BGC-823, liver cancer. Described as above. It is filed as cell-based. The following applies: Homo sapiens, read-out: inhibition rates (%) BGC-823. Put shortly:
as §1

Data set [2] concerns the target T1, 20S proteasome extracted from rat liver (CT-L) (Rattus norvegicus, UniProt P18421+P28075).
T1 construct: 20S proteasome extracted from rat liver; from tissue; host or cells: rat liver
The data set is described as follows: inhibition of 20S proteasome, CT-L activity (fluorescent peptide). It is filed as biochemical. The following applies: rat liver 20S proteasome; for inhibition at 0.2 µM / inhibition at 2 µM / inhibition at 20 µM: 37° C., 1 h, read-out: inhibition rates (%) CT-L; for IC50: read-out: IC50 (μM) CT-L. The method, then:
(§2) 1 μg of 20S proteasome extracted from rat liver was incubated with a 100 μL solution containing various concentrations of the present compounds, 50 μM fluorescent peptides and 20 mM Tris-HCl at 37° C. for 1 h, respectively. […] 0.1% DMSO was used as a solvent control. Compared with the fluorescence of solvent control, an inhibition rate or IC50 value was calculated.

The target of data set [3] is T2, 20S proteasome extracted from rat liver (T-L) (Rattus norvegicus, UniProt P40112+Q9JHW0).
T2 construct: 20S proteasome extracted from rat liver; from tissue; host or cells: rat liver
As to the kind of experiment: inhibition of 20S proteasome, T-L activity (fluorescent peptide). It is filed as biochemical. The following applies: rat liver 20S proteasome; for inhibition at 0.2 µM / inhibition at 2 µM / inhibition at 20 µM: 37° C., 1 h, read-out: inhibition rates (%) T-L; for IC50: read-out: IC50 (μM) T-L. The method, then: as §2

Data set [4] concerns the target T3, 20S proteasome extracted from rat liver (PGPH) (Rattus norvegicus, UniProt P28073+Q9JHW0).
T3 construct: 20S proteasome extracted from rat liver; from tissue; host or cells: rat liver
The data set is described as follows: inhibition of 20S proteasome, PGPH activity (fluorescent peptide). The format is biochemical. The following applies: rat liver 20S proteasome; for inhibition at 0.2 µM / inhibition at 2 µM / inhibition at 20 µM: 37° C., 1 h, read-out: inhibition rates (%) PGPH; for IC50: read-out: IC50 (μM) PGPH. The method, then:
as §2

In data set [5] the test system is MGC803 stomach cancer cells. The data set is described as follows: anti-tumor activity in vitro (IC50), MTT. The format is cell-based. The following applies: Homo sapiens, MGC-803; stomach cancer cells, MTT, 72 h; read-out: IC50 (μM) MGC803. Here is the method:
(§3) Cancer cells were cultured in vitro. When cell growth reached logarithmic phase, the cells were collected and centrifuged at 1000 rpm for 5 min, before the supernate was removed and the cells were suspended in a moderate amount of medium, and then the concentration of cell was adjusted to 3.5×10^4/mL. The cell suspension was added into a 96-well plate with 100 μL per well and cultured in a cell incubator (37° C., 5% CO2) for 24 h. Then test drugs of different end concentrations were added, and the negative control group was added DMSO (end concentration was 0.5%), while each group afforded three repetitive holes. After cultivation for another 72 h in the cell incubator, a solution containing 5 mg/ml MTT (20 μL) was added into each well and the 96-well plate was placed at 37° C. for 3 h. To each well was added 150 μL DMSO, after oscillation in a shaking table for 5 min, the optical density (OD) values at 492 nm/620 nm were measured. IC50 values were calculated by Prism Graphpad statistical software.

The next data set has as its system HepG2 liver cancer cells. As to the kind of experiment: anti-tumor activity in vitro (IC50), MTT. It is filed as cell-based. The following applies: Homo sapiens, liver cancer cells, 72 h, read-out: IC50 (μM) HepG2. Here is the method: as §3

This note sets out measurements from patent US10494384B2, “Urea peptoid boric acid compound, pharmaceutical composition thereof, preparation method therefor, and uses thereof” (Peking University, priority 2015, dated 2019).

What is called inhibition is the relative decrease from the control value, in per cent. Broadly, the melting point is the temperature of the solid-liquid transition. `CC(C)C[C@H](NC(=O)N[C@@H](Cc1ccccc1)C(=O)Nc1cccc(OCc2ccccc2)c1)B1OC2C[C@H]3C[C@H](C3(C)C)[C@@]2(C)O1` (stereo partly drawn) [Example 5, N-L-leucine borate pinanediol ester-N′-(3-benzyloxy-phenylcarbamoyl)-L-phenylalanine-urea] returned a melting point of 78 to 80 °C. In data set [1], the inhibition at 0.1 µM is 7.42%, the inhibition at 1 µM was 10.3% and the inhibition at 10 µM worked out at 21.8%. Moreover, in the data set on A549, human lung cancer, the inhibition at 0.1 µM came out at 3.25%, the inhibition at 1 µM is 10.3% and the inhibition at 10 µM turned out to be 30.3%. In the data set on MCF-7, breast cancer, the inhibition at 0.1 µM was found to be 6.37%, the inhibition at 1 µM turned out to be 8.84% and the inhibition at 10 µM came to 8.44%. Besides, in the data set on BGC-823, liver cancer, the inhibition at 0.1 µM amounted to 5.47%, the inhibition at 1 µM is 3.19% and the inhibition at 10 µM was 8.66%. In data set [2], the inhibition at 0.2 µM is -17.8%, the inhibition at 2 µM was -15.1% and the inhibition at 20 µM is -3.13%. In [3], the inhibition at 0.2 µM is -5.23%, the inhibition at 2 µM was -1.52% and the inhibition at 20 µM worked out at 0.968%. In addition, in [4], the inhibition at 0.2 µM is 2.67%, the inhibition at 2 µM is 3.15% and the inhibition at 20 µM came to 9.71%.
On to `CC(C)C[C@H](NC(=O)N[C@@H](Cc1ccccc1)C(=O)Nc1cnccn1)B1OC2C[C@H]3C[C@H](C3(C)C)[C@@]2(C)O1` (stereo partly drawn) [Example 7, N-L-leucine borate pinanediol ester-N′-(pyrazin-2-ylcarbamoyl)-L-phenylalanine-urea], for which the melting point fell in the range of 93 to 95 °C. In [1], the inhibition at 0.1 µM turned out to be 0.48%, the inhibition at 1 µM came out at 5.11% and the inhibition at 10 µM is 14.9%. For the same molecule, in the data set with A549, human lung cancer, the inhibition at 0.1 µM is -1.53%, the inhibition at 1 µM stood at 2.54% and the inhibition at 10 µM is 15.5%. Besides, in the data set with MCF-7, breast cancer, the inhibition at 0.1 µM was 4.81%, the inhibition at 1 µM worked out at 7.4% and the inhibition at 10 µM was determined as 11.7%. Moreover, in the data set with BGC-823, liver cancer, the inhibition at 0.1 µM came to 2.21%, the inhibition at 1 µM was found to be 0.62% and the inhibition at 10 µM worked out at 6.88%. In data set [2], the inhibition at 0.2 µM was found to be 23.4%, the inhibition at 2 µM came to 47.2% and the inhibition at 20 µM was determined as 82.6%. Also, in data set [3], the inhibition at 0.2 µM is -16.5%, the inhibition at 2 µM was -12.6% and the inhibition at 20 µM amounted to 25.3%. Besides, in data set [4], the inhibition at 0.2 µM turned out to be 5.76%, the inhibition at 2 µM stood at 1.95% and the inhibition at 20 µM is 0.485%.
The term IC50 denotes the concentration needed to halve the response being measured. Take `CC(C)C[C@H](NC(=O)[C@H](Cc1ccccc1)NC(=O)NCc1ccccc1)B(O)O` [Example 14, N-L-phenylalanyl-L-leucine borate-N′-benzylamine-urea]: the IC50 in [5] was 0.0188 µM; with HepG2 liver cancer cells, 0.0873 µM. The inhibition at 0.1 µM in data set [1] turned out to be 40.3%; in the data set with A549, human lung cancer, 2.67%; in the data set with MCF-7, breast cancer, 51.9%; in the data set with BGC-823, liver cancer it was 12.9%. For the same molecule, the inhibition at 1 µM in [1] stood at 43.2%; with A549, human lung cancer, 13%; with MCF-7, breast cancer it was 67.8%; in the data set on BGC-823, liver cancer it was 33.5%. The inhibition at 10 µM in [1] stood at 53.5%; with A549, human lung cancer, 33.3%; with MCF-7, breast cancer, 72.2%; in the data set on BGC-823, liver cancer, 38.2%. Besides, the inhibition at 0.2 µM worked out at 82.1% in data set [2], 5.04% in data set [3] and 6.46% in [4]. The inhibition at 2 µM in [2] worked out at 96.1%; in [3], 57.8%; in data set [4] it was 84.6%. The inhibition at 20 µM in data set [2] turned out to be 98.9%; in data set [3], 88.4%; in data set [4] it was 97%.
With `COc1ccc(CNC(=O)N[C@@H](Cc2ccccc2)C(=O)N[C@@H](CC(C)C)B(O)O)cc1` [Example 15, N-L-phenylalanyl-L-leucine borate-N′-(p-methoxy-benzylamine)-urea], the concentration for half-maximal inhibition (IC50) in data set [5] turned out to be 0.036 µM; in the data set on HepG2 liver cancer cells, 0.25 µM. Moreover, the inhibition at 0.1 µM stood at 39.3% in [1]; 2.63% in the data set with A549, human lung cancer; 47.7% with MCF-7, breast cancer; 7.38% in the data set with BGC-823, liver cancer. In addition, the inhibition at 1 µM came to 44.5% in data set [1]; 11% in the data set on A549, human lung cancer; 65% with MCF-7, breast cancer; 32.6% in the data set on BGC-823, liver cancer. Moreover, the inhibition at 10 µM was determined as 51.8% in data set [1]; 31.1% in the data set on A549, human lung cancer; 73.8% in the data set with MCF-7, breast cancer; 38.4% with BGC-823, liver cancer. The results for the inhibition at 0.2 µM in data set [2], in data set [3] and in data set [4] were 86.3%, 5.72% and 8.45%, respectively. Besides, the inhibition at 2 µM in data set [2] is 95.9%; in data set [3], 53.5%; in data set [4] it was 89.4%. Further, the inhibition at 20 µM in [2] was determined as 98.3%; in data set [3], 90.4%; in [4] it was 96.8%.
For the molecule `COc1ccc(OC)c(CNC(=O)N[C@@H](Cc2ccccc2)C(=O)N[C@@H](CC(C)C)B(O)O)c1` [Example 18, N-L-phenylalanyl-L-leucine borate-N′-(2,5-dimethoxy-benzylamine)-urea], the IC50 in [5] stood at 0.0106 µM; in the data set on HepG2 liver cancer cells, 0.0528 µM. Further, the inhibition at 0.1 µM in data set [1] amounted to 37.8%; with A549, human lung cancer, 44.3%; in the data set on MCF-7, breast cancer, 25.8%; in the data set on BGC-823, liver cancer, 41.4%. Besides, the inhibition at 1 µM in [1] was 39.6%; in the data set with A549, human lung cancer it was 63.5%; with MCF-7, breast cancer, 37.5%; in the data set on BGC-823, liver cancer it was 46.6%. Moreover, the inhibition at 10 µM is 46.5% in data set [1]; 66% in the data set on A549, human lung cancer; 47.8% with MCF-7, breast cancer; 50% in the data set on BGC-823, liver cancer. The inhibition at 0.2 µM in data set [2] was 82.1%; in [3], 4.99%; in data set [4] it was 9.81%. Moreover, the inhibition at 2 µM in data set [2] came to 96.7%; in data set [3], 56.9%; in [4] it was 68.8%. In addition, the inhibition at 20 µM in data set [2] stood at 98.3%; in data set [3] it was 91%; in [4], 97.1%.
For the molecule `CC(C)C[C@H](NC(=O)[C@H](Cc1ccccc1)NC(=O)NCc1ccc(-c2ccccc2)cc1)B(O)O` [Example 32, N-L-phenylalanyl-L-leucine borate-N′-p-phenyl-benzylamine-urea], the IC50 in data set [5] was found to be 0.00587 µM; in the data set on HepG2 liver cancer cells, 0.0372 µM; in data set [2] it was 0.0003 µM; in data set [3], 1.15 µM; in data set [4], 0.24 µM.
On to `CC(C)C[C@H](NC(=O)[C@H](Cc1ccccc1)NC(=O)NCc1cccc2ccccc12)B(O)O` [Example 34, N-L-phenylalanyl-L-leucine borate-N′-naphth-1-ylmethylamine-urea], for which the half-inhibitory concentration (IC50) turned out to be 0.00706 µM in data set [5]; 0.0531 µM with HepG2 liver cancer cells; 0.012 µM in [2]; 0.15 µM in data set [3]; 0.12 µM in [4].
